Results on six compounds are retold here after patent publication US11185100B2 (priority 2014, dated 2021).

The target in this assay is T1R1/T1R3 receptor (Felis catus, UniProt E3UMS2). As to the kind of experiment: Activation of T1R1/T1R3 receptor by transmembrane compounds alone or with alanine, IMP, GMP, phenylalanine; HEK293 cells, calcium fluorescence (Example 5). The note with it: for Max resp % of IMP +Alanine (20 mM): relative to IMP; for Thres +Alanine (20 mM) / Thres +IMP (0.2 mM): threshold concentration; for Max resp % of Ala +IMP (0.2 mM): relative to Ala; for Activity: Table 18, all transmembrane compounds tested, active / N/A (not active). It is filed as cell-based, cat. The source says: Methods: HEK293 cells that stably express T1R3 and inducibly express T1R1 were exposed to transmembrane compounds alone or in combination with one or more amino acids and/or one or more nucleotides to activate the umami receptor. Activation of the T1R1/T1R3 receptor was detected by a change in intracellular calcium levels using a calcium sensitive fluorescent dye. Cells that express T1R3 but not T1R1 were used as a control. A FLIPR® Tetra or a FlexStation® 3 was used for data capture.
In each experiment, serial dilutions of up to 10 mM of the transmembrane compound were added to the T1R1/T1R3-expressing cells.

For `O=C(NCCc1ccccc1)C(=O)NCc1cccnc1` [N1-phenethyl-N2-(pyridin-3-ylmethyl)oxalamide], the “Max resp % of IMP +Alanine (20 mM)” value was 30.2%, the “Thres +Alanine (20 mM)” value is given as 1 mM, the “Max resp ΔF/F +IMP (0.2 mM)” value was 0.7625 ΔF/F and the “Max resp % of Ala +IMP (0.2 mM)” value was 61.9%. Further, the “Thres +IMP (0.2 mM)” value is reported as 0.1 mM and the outcome was active.
`COc1ccc(C(=O)NC(C)c2ccccc2)cc1C` (stereo not shown) [4-methoxy-3-methyl-N-(1-phenylethyl)benzamide]: the “+Alanine (20 mM) Max resp % of IMP” value is recorded as 41.0 % of IMP, the “+Alanine (20 mM) Max resp ΔF/F” value is reported as 0.51 ΔF/F, the “+Alanine (20 mM) Thres” value is reported as 3 mM and the “Max resp % of IMP +Alanine (20 mM)” value is on record as 41.0%. The “Thres +Alanine (20 mM)” value stood at 3 mM, the “+IMP (0.2 mM) Max resp % of Ala” value is reported as 95.6 % of Ala, the “Max resp ΔF/F +IMP (0.2 mM)” value is on record as 1.1775 ΔF/F and the “Max resp % of Ala +IMP (0.2 mM)” value is listed as 95.6%. Also, the “Thres +IMP (0.2 mM)” value was 0.35 mM and the outcome was active.
`CCC(CC)NC(=O)c1ccc2c(c1)OCCO2` [N-(pentan-3-yl)-2,3-dihydrobenzo[b][1,4]dioxine-6-carboxamide]: the “+Alanine (20 mM) Max resp % of IMP” value is 25.2 % of IMP, the “+Alanine (20 mM) Max resp ΔF/F” value is 0.3125 ΔF/F, the “+Alanine (20 mM) Thres” value came to 0.3 mM and the “Max resp % of IMP +Alanine (20 mM)” value is given as 25.2%. Further, the “Thres +Alanine (20 mM)” value is recorded as 0.3 mM, the “+IMP (0.2 mM) Max resp % of Ala” value was 70.9 % of Ala, the “Max resp ΔF/F +IMP (0.2 mM)” value was 0.8725 ΔF/F and the “Max resp % of Ala +IMP (0.2 mM)” value is reported as 70.9%. Besides, the “Thres +IMP (0.2 mM)” value stood at 0.075 mM and the result was active.
On to `CCC(CC)NC(=O)c1ccc(C)c(C)c1` [3,4-dimethyl-N-(pentan-3-yl)benzamide], for which the “Max resp % of IMP +Alanine (20 mM)” value stood at 97.8%, the “Thres +Alanine (20 mM)” value was determined as 3 mM, the “Max resp ΔF/F +IMP (0.2 mM)” value is reported as 1.5475 ΔF/F and the “Max resp % of Ala +IMP (0.2 mM)” value was found to be 125.7%. In addition, the “Thres +IMP (0.2 mM)” value stood at 0.525 mM and the outcome was active.
Take `CSc1ccc(-c2nnn(Cc3ccccn3)n2)cc1` [2-((5-(4-(methylthio)phenyl)-2H-tetrazol-2-yl)methyl)pyridine]: the “+IMP (0.2 mM) Max resp % of Ala” value is 80.7 % of Ala, the “Max resp ΔF/F +IMP (0.2 mM)” value is reported as 0.678 ΔF/F, the “Max resp % of Ala +IMP (0.2 mM)” value turned out to be 80.7% and the “Thres +IMP (0.2 mM)” value came to 0.1575 mM. Further, the outcome was active.
Turning to `CCCC(C)NC(=O)/C=C/c1ccc(OC)c(OC)c1` (stereo not shown) [(E)-3-(3,4-dimethoxyphenyl)-N-(pentan-2-yl)acrylamide], the “Max resp % of IMP +Alanine (20 mM)” value is 35.2%, the “Thres +Alanine (20 mM)” value came to 1 mM, the “Max resp ΔF/F +IMP (0.2 mM)” value is given as 1.07 ΔF/F and the “Max resp % of Ala +IMP (0.2 mM)” value is 86.9%. Also, the “Thres +IMP (0.2 mM)” value came out at 0.55 mM and the result was active.
